Laboratory results reported in patent publication US6723525B2, “Methods and compositions for screening modulators of lipid kinases” (Warner-Lambert Company, priority 2000, dated 2004).

Experiments:
[1] = biological target: sphingosine kinases (SPHKs) (Homo sapiens, UniProt Q9NYA1); conditions: cited from earlier work
[2] = biological target: T1, human sphingosine kinase (huSPHK1) (Homo sapiens, UniProt Q9NYA1); experiment: Sphingosine kinase activity scintillation proximity assay (SPA) with extracts of transfected CHO or COS-7 cells; assay type: biochemical; conditions: FIG. 4B; read-out: ATP KM
T1 construct: made in house; host or cells: CHO and/or COS-7 cells, transiently transfected; raw cell extract after thaw/freeze cycles
T1 sequence (Q9NYA1 whole entry): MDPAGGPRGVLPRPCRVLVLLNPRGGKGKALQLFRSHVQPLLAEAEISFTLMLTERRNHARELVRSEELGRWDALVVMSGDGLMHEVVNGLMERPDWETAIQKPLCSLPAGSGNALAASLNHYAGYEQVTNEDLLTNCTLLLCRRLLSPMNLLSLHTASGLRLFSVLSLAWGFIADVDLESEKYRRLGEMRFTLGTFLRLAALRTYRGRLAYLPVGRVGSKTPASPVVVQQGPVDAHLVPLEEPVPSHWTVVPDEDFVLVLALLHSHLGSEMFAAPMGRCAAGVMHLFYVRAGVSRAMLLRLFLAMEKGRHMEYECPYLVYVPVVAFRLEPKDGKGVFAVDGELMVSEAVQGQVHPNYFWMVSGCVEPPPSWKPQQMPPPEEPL
Method: CHO and/or COS-7 cells were cultured in 90% Ham F12 medium, 10% foetal bovine serum, Gentamycin, in T-175 tissue culture flasks in air with 5% CO2 atmosphere at 37° C. CHO and/or COS-7 cells were transiently transfected with the vector pcDNA3 alone or vector containing the human sphingosine kinase cDNA, using the Qiagen reagent Superfect. They were seeded 5×10^6 per 175 cm^2 flask. After 24 hrs, cells were transfected with 10 μg of cDNA mixed with 20 μl Superfect for 6 hrs, washed, and cultured for 2 days in complete Ham medium. They were then trypsinized, centrifuged down at 1500 rpm for 10 min, and resuspended in assay buffer. They underwent 3 thaw/freeze cycles and protein concentration were estimated using the Bradfaord technique (Biorad kit). The protein concentration was adjusted to 1 μg/μl, and aliquots were kept frozen at −20° C. […]
100 μL/well of SPA beads emulsion (corresponding to 0.5 mg/well beads). The plate is covered with a transparent Topseal (Packard), stirred for 1 hour at 800 rpm and counted on a Wallac Trilux. […]
Taking advantage of the property of these supports, a two-steps assay was set up (see FIG. 1). […] The beads settle down for an hour, and the plate is read on a scintillation counter.
Optimization of assay conditions need also the determination of adequate quantities of ATP, sphingosine, and enzyme concentration. […]

sphingosine kinases (SPHKs), sequence (Q9NYA1 whole entry): as above

Row | Km [2] [µM] | SMILES | Km [1] [µM]
1 | – | CCCCCCCCCCCCC/C=C/[C@@H](O)[C@@H](N)CO [Sphingosine] | 5
2 | ~30 | Nc1ncnc2c1ncn2[C@@H]1O[C@H](COP(=O)(O)OP(=O)(O)OP(=O)(O)O)[C@@H](O)[C@H]1O [ATP] | –
